# Data: publication PMC6471427, “Halogen-Substituted Triazolethioacetamides as a Potent Skeleton for the Development of Metallo-β-Lactamase Inhibitors” (Molecules, 2019)
# Like-named read-outs stand apart in the source and are kept apart here.
# Assays:
# NDM-1 = biological target: T1, NDM-1 (Klebsiella pneumoniae, UniProt C7C422); assay: Inhibition of NDM-1 with cefazolin as substrate (UV-vis kinetics); format: biochemical; conditions: read-out: IC50 against NDM-1
# T1 construct: made in house
# Excerpt: (§1) To test whether these halogen-substituted triazolethioacetamides were inhibitors of the MβLs, three subclasses MβLs B1(VIM-2 and NDM-1), B2 (ImiS), and B3 (L1) were expressed and purified as previously described. […] On the whole, triazolethioacetamides containing chlorine (1–8) increase the inhibitory potency slightly on average compared to those containing fluorine (9–12), but the presence of trifluoromethoxy (13) is beneficial to increase the inhibitory activity. […] Furthermore, replacement of two hydrogen at the anilino group with chlorine (4 and 5) or fluorine (12) relatively reduces the inhibitory activity, especially compound 12 with two fluorine at 2,5-position of anilino group.
# (§2) The inhibition studies were carried out on an Agilent UV 8453 spectrophotometer at 25 °C using cefazolin as substrate of […], NDM-1, and L1 and imipenem as substrate of ImiS. Inhibitors 1–13 were dissolved in DMSO and then diluted with Tris-HCl, pH 7.0. The substrate concentrations were varied between 25 and 400 μM, and inhibitor concentrations were varied between 125 nM and 1 mΜ. The enzyme and inhibitor were pre-incubated for 30 min before starting the kinetic experiments. The IC50 values for all analyzed compounds were calculated based on the kinetic data. The mode of inhibition was determined by generating Lineweaver-Burk plots of the data, and the Ki was determined by replotting the data for slope and intercept versus […].
# VIM-2 = biological target: T2, VIM-2 (Escherichia coli, UniProt Q5U7L7); assay: Inhibition of VIM-2 (UV-vis kinetics); format: biochemical; conditions: 25 °C, Tris-HCl pH 7.0, 30 min pre-incubation; read-out: IC50 against VIM-2
# T2 construct: made in house
# Excerpt: as §1, §2
# ImiS = biological target: T3, ImiS (Aeromonas veronii, UniProt O31272); assay: Inhibition of ImiS-catalysed hydrolysis of imipenem (UV-vis kinetics; IC50, Ki, mode); format: biochemical; conditions: for Inhibition mode against ImiS: Lineweaver-Burk plots
# T3 construct: made in house
# T3 sequence (O31272 28-255): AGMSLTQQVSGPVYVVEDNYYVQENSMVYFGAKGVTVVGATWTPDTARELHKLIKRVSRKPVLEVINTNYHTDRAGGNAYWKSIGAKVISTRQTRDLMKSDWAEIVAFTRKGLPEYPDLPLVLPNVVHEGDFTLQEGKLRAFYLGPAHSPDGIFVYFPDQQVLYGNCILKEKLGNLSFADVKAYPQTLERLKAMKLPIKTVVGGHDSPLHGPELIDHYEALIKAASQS
# Excerpt: as §1, §2
# MβLs = biological target: MβLs; parameters: method as in PMID 11564740; conditions: broad spectrum MβLs inhibitor; read-out: Ki against MβLs; cited from earlier work
# [1] = 25 °C, Tris-HCl pH 7.0, 30 min pre-incubation
# T1 sequence (C7C422 29-270, looked up, species assumed): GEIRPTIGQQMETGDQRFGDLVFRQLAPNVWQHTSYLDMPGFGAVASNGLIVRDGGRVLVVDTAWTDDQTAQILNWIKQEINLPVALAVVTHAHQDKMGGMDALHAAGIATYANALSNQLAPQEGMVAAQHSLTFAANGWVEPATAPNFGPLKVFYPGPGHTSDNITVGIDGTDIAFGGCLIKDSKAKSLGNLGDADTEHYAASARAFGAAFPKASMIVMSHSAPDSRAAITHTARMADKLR
SMILES,IC50 (NDM-1; [1]),IC50 (VIM-2),IC50 (ImiS),Ki (ImiS),Inhibition mode against ImiS (ImiS; imipenem as substrate),Ki (MβLs),Inhibitory activity against ImiS (in words) (ImiS; imipenem as substrate),IC50 (NDM-1; value in nM)
O=C(CSc1nnc(-c2ccccc2O)[nH]1)Nc1ccc(OC(F)(F)F)cc1 [Compound 13],> 1e+06 nM,2.8 ± 0.3 µM,0.23 ± 0.09 µM,0.27 µM,mixed inhibitors,–,–,–
O=C(CSc1nnc(-c2ccccc2O)[nH]1)Nc1ccc(Cl)cc1 [Compound 3],370 ± 50 nM,> 1000 µM,0.051 ± 0.006 µM,–,–,–,–,–
"O=C(O)C(S)c1ccccc1 (centres unmarked) [rthiomandelic acid, thiomandelic acid]",–,–,–,–,–,0.09 µM,–,–
O=C(CSc1nnc(-c2ccccc2O)[nH]1)Nc1cccc(F)c1 [Compound 10],> 1e+06 nM,> 1000 µM,0.98 ± 0.04 µM,–,–,–,–,–
O=C(CSc1nnc(-c2ccccc2O)[nH]1)Nc1ccccc1Cl [Compound 1],960 ± 70 nM,> 1000 µM,0.032 µM,–,–,–,–,–
O=C(CSc1nnc(-c2ccccc2O)[nH]1)Nc1cc(Cl)ccc1[N+](=O)[O-] [Compound 7],> 1e+06 nM,> 1000 µM,0.2 ± 0.04 µM,–,–,–,–,–
O=C(CSc1nnc(-c2ccccc2O)[nH]1)Nc1ccc(F)cc1 [Compound 11],> 1e+06 nM,> 1000 µM,> 50 µM,–,–,–,nearly had no inhibitory activity,–
O=C(CSc1nnc(-c2ccccc2O)[nH]1)Nc1ccccc1F [Compound 9],> 1e+06 nM,> 1000 µM,0.072 ± 0.005 µM,0.074 µM,mixed inhibitors,–,–,–
O=C(CSc1nnc(-c2ccccc2O)[nH]1)Nc1ccc(Cl)c(Cl)c1 [Compound 4],> 1e+06 nM,> 1000 µM,0.27 ± 0.02 µM,–,–,–,–,–
O=C(CSc1nnc(-c2ccccc2O)[nH]1)Nc1cccc(Cl)c1 [Compound 2],170 ± 20 nM,> 1000 µM,0.045 ± 0.002 µM,–,–,–,–,170 nM
O=C(CSc1nnc(-c2ccccc2O)[nH]1)Nc1ccc([N+](=O)[O-])cc1Cl [Compound 8],> 1e+06 nM,> 1000 µM,0.26 ± 0.03 µM,–,–,–,–,–
O=C(CSc1nnc(-c2ccccc2O)[nH]1)Nc1ccc(Cl)cc1[N+](=O)[O-] [Compound 6],> 1e+06 nM,> 1000 µM,0.78 ± 0.08 µM,–,–,–,–,–
O=C(CSc1nnc(-c2ccccc2O)[nH]1)Nc1ccc(Cl)cc1Cl [Compound 5],> 1e+06 nM,> 1000 µM,0.16 ± 0.03 µM,–,–,–,–,–
"O=C(O)C(S)c1ccccc1 (single isomer, unassigned) [S-isomer, thiomandelic acid]",–,–,–,–,–,1.28 µM,–,–
O=C(CSc1nnc(-c2ccccc2O)[nH]1)Nc1c(F)cccc1F [Compound 12],> 1e+06 nM,38.9 ± 5 µM,15.6 ± 3 µM,–,–,–,–,–
